Read-outs that look alike come from different tables or passages of the source.
Tests used:
[1] = tested on: SCLC cell line H82; assay: H82 cell proliferation with subtype-selective mAChR antagonists; type: cell-based, human
Experimental: (§1) For in vitro cell proliferation assays, cells were suspended at a concentration of 50,000 cells/ml and pipetted up and down to break up cell clumps. 100 μl cell suspension was added to each well of a 96-well plate. 100 μl darifenacin at concentrations of 2×10^−5, 2×10^−6, 2×10^−7, 2×10^−8, 2×10^−9 M and vehicle control were then added to wells. Every three days, half the volume of the media was changed and at 0, 3, 6, 9 and 12 days, cell number was determined with the Cell-Titer Blue reagent (Promega, Madison Wis.) which measures the production of the fluorescent product of resorufin from resazurin by metabolically active cells.

[2] = tested on: H82 cells; assay: H82 SCLC tumor growth in nude mice, subcutaneous minipump; type: in vivo, mouse
Experimental: Mice (NU/NU, Charles River Laboratories) were injected with SCLC tumor cells (NCI-H82 cells, American Type Culture Collection (ATCC); Manassas, Va.), treated with drug and tumor growth monitored. The H82 cells express M3 muscarininc receptor (see Song et al., Cancer Res. 63:214-21, 2003). Nude mice, 5-7 weeks old were housed in a pathogen-free room in microisolators with autoclaved bedding, and fed autoclaved rodent chow and water.
H82 cells were first grown in RPMI-1640+ITS (insulin (5 μg/ml), transferrin (5 μg/ml), sodium selenite (5 ng/ml)). Cells were collected, centrifuged and resuspended in fresh RPMI-1640+ITS at a concentration of 5×10^6 cell/0.25 ml. Cells were then mixed with an equal volume of matrigel (BD Biosciences) to give a final concentration of 5×10^6 cell/0.5 ml and 0.5 ml of this cell suspension was then injected subcutaneously into the right flank of each mouse.
(§2) Tumors were allowed to grow for one week, then drug administration was initiated and continued for the next 4 weeks. Drugs were administered by subcutaneously-implanted osmotic minipumps (Alzet model# 2004). Atropine and darifenacin were dissolved in 50% DMSO/50% phosphate-buffered saline. Atropine was delivered at a dose of 10 mg/kg per day; darifenacin (Novartis Pharma AG, Basel, Switzerland) was delivered at doses of 0.3, 1.0 and 3.0 mg/kg per day. Control animals received minipumps filled with 50% DMSO/50% phosphate-buffered saline.
(§3) Tumor volume was determined weekly by measuring with calipers (volume=height×width×depth). Mice were euthanized after 4 weeks of drug administration. 10 animals were used per group. At sacrifice tumors were removed and weighed. Part of the tumor was fixed for histologic examination of tumor morphology and part was frozen for RNA and protein analyses.

[3] = plasma darifenacin concentration in nude mice; type: in vivo, mouse; settings: s.c. minipump; for concentration at 4 weeks: mouse, plasma, sc
Experimental: FIG. 4 is a bar graph showing the relation of nude mouse darifenacin dose to concentration of darifenacin achieved in mouse blood. Dashed lines show concentration of darifenacin obtained in humans treated with 30 mg extended release darifenacin per day.
as §2
Thus significant reduction in SCLC growth can be achieved at clinically relevant doses of M3 mAChR antagonists.

[4] = overall animal weight of treated nude mice; type: in vivo, mouse; settings: darifenacin treatment
Experimental: as §2

[5] = tested on: SCLC cell lines; assay: in vitro cell proliferation assay (Cell-Titer Blue); type: cell-based, human
Experimental: SCLC cell lines (HA-E, SV-E, LV-E, BK-T, HG-E, AD-A, LD-T, H69 (HTB-119), H82 (HTB-175), H146 (HTB 173), H187 (CRL-5804), H524 (CRL-5831), H526 (CRL-5811), H740 (CRL-5840), H841 (CRL-5845), H1048 (CRL-5853), H1105 (CRL-5856), H1417 (CRL-5869), H1694 (CRL-5888). H1836 (CRL-5898), H1876 (CRL-5902), H2029 (CRL-5913), H2195 (CRL-5931), and H2198 (CRL-5933)), were grown in RPMI 1640 medium (Mediatech, Herndon Va.) supplemented with 0-10% fetal bovine serum (Hyclone, Logan, Utah) and ITS (5 μg/ml insulin, 5 μg/ml transferrin, 5 ng/ml sodium selenite (BD Biosciences, San Jose, Calif.)) plus 100 units/ml penicillin, […] streptomycin, and […] amphotericin (Invitrogen, Carlsbad Calif.) at 37° C. in a humidified 5% CO2 atmosphere.
as §1

[6] = tested on: MAPK phosphorylation; assay: MAPK phosphorylation in tumors removed from treated mice; type: in vivo, mouse; settings: tumors removed from darifenacin-treated mice
Experimental: as §3
(§4) ACh content of control tumor samples was 420±110 pmol/g which, corresponds to 4×10^−7 M, assuming uniform distribution in the tumor. These levels of ACh are high enough to increase MAPK phosphorylation.

[7] = tested on: Akt phosphorylation; assay: Akt phosphorylation in tumors removed from treated mice; type: in vivo, mouse; settings: tumors removed from darifenacin-treated mice
Experimental: as §3, §4

[8] = tested on: lung, pancreas and esophagus; settings: nicotine for 3 weeks vs control mice
Experimental: At the end of 3 weeks, bromodeoxy uridine (BrdU) will be injected ip, 50 mg/kg, then 24 hours later mice will be sacrificed and selected tissues removed to measure cell proliferation. Tissues removed will include lung, pancreas and esophagus, tumors of which are associated with smoking. Tissues will be sectioned and BrdU incorporation into cells determined so as to determine the number of replicating cells per section.

[9] = tested on: H82 cells; assay: H82 tumors in nude mice receiving nicotine (planned); type: in vivo, mouse; settings: nicotine 2.0 mg/kg/day by minipump
Experimental: Nude mice are administered H82 cells as described in Example 3. […] Nicotine (nicotine bitartrate, Sigma) is dissolved in water at a concentration to deliver 2.0 mg/kg/day; and will be administered by a second minipump. Tumor volume will be determined weekly as described in the Examples above, and mice euthanized after 4 weeks of drug administration. At sacrifice tumors are removed and weighed. Part of the tumor can be fixed for histologic examination of tumor morphology and part frozen for RNA and protein analyses.

[10] = tested on: H82 SCLC cells; settings: H82 SCLC cells incubated with nicotine; FIG. 6
Experimental: H82 SCLC cells were incubated with nicotine for the times shown and secretion of ACh into the medium was measured.

[11] = up to 10^−5 mol/L, nine days of treatment

C[N+]1(C)CCC(OC(=O)C(c2ccccc2)c2ccccc2)CC1.[I-] [4-DAMP, 4-diphenylacetoxy-N-methylpiperidine methiodide]
H82 cell proliferation ([1]; 10^−9 mol/L to 10^−5 mol/L, after nine days): significantly reduced cell proliferation

CCN(CC)CC1CCCCN1CC(=O)N1c2ccccc2C(=O)Nc2cccnc21 (centres unmarked) [AFDX-1116]
H82 cell proliferation [1, 11]: no detectable effect

Cl.O[Si](CCCN1CCCCC1)(c1ccc(F)cc1)C1CCCCC1 (centres unmarked) [P-F-HHSiD, hexahydro-sila-difenidol hydrochloride, p-fluoro analog]
H82 cell proliferation ([1]; 10^−5 mol/L, after nine days): significantly reduced cell proliferation

CN1[C@@H]2CC[C@H]1C[C@@H](OC(=O)C(CO)c1ccccc1)C2 (some centres unmarked) [atropine]
tumor growth (tumor weight) ([2]; 10 mg/kg per day s.c. minipump, weeks 1-5, FIG. 5): do not reduce or inhibit tumor growth

NC(=O)C(c1ccccc1)(c1ccccc1)[C@@H]1CCN(CCc2ccc3c(c2)CCO3)C1 [darifenacin, (S)-2-{1-[2-(2,3-dihydrobenzofuran-5-yl)ethyl]-3-pyr-rolidinyl}-2,2-diphenyl-acetamide]
tumor size (volume by calipers) ([2]; 0.3, 1.0 and 3.0 mg/kg per day s.c. minipump, weeks 1-5, FIG. 2): dosewise-reduction | histology of tumor cells compared to controls ([2]; highest dose of darifenacin): larger in size, with increased-cytoplasm and less nuclear molding | inhibition of tumor size, statistics ([2]; largest dose (3.0 mg/kg per day), FIG. 2): statistically significant | tumor weight ([2]; tumors removed and weighed at end of 5 weeks, FIG. 3): significant decrease | concentration at 4 weeks ([3]; 3 mg/kg per day, read-out: average plasma darifenacin concentration at which tumor growth was reduced): 9.4 ± 0.3 ng/mL | concentration at 4 weeks ([3]; FIG. 4, read-out: plasma darifenacin concentrations at which inhibition of tumor growth was achieved): 3 to 10 ng/mL | average plasma darifenacin concentration [3]: ~25 nM | average plasma darifenacin concentration at which tumor growth was reduced [3]: 9.4 ± 0.97 ng/mL | overall animal weight [4]: No significant effects | cell growth in five SCLC cell lines ([5]; 10 μM darifenacin, H187, H1048, H1836, H1876, H520, FIGS. 1A-E): responsive | SCLC cell lines with significantly reduced proliferation ([5]; 20 SCLC cell lines tested): 14 out of 20 | proliferation of non-responding cell lines ([5]; cell lines LV-E, AD-A, L-D-T, H69, H1417, H2198): not affected | levels of MAPK phosphorylation in the tumors [6]: significantly decreased | Akt phosphorylation in the tumors [7]: no significant effects

CN1CCCC1c1cccnc1 (centres unmarked) [nicotine]
replicating cells in tissue (BrdU incorporation) [8]: more replicating cells | effect of nicotine on tumor growth [9]: grow faster | acetylcholine secretion into the medium [10]: stimulates acetylcholine secretion

CN1CCN(CC(=O)N2c3ccccc3C(=O)Nc3cccnc32)CC1 [pirenzepine]
H82 cell proliferation [1, 11]: no detectable effect

O=C(O[C@H]1C[C@H]2CC[C@@H](C1)[N+]21CCCC1)C(O)(c1ccccc1)c1ccccc1 [trospium]
tumor growth ([2]; stated for nonselective antagonists, no dose or test described): do not reduce or inhibit tumor growth

Reference: patent publication US20090062326A1, “M3 MUSCARINIC RECEPTOR ANTAGONISTS FOR TREATMENT OF M3 MUSCARINIC RECEPTOR-EXPRESSING TUMORS” (priority 2006, published 2009)
